PMC7182431, “CNGA3 acts as a cold sensor in hypothalamic neurons” (eLife, 2020)

Legend:
Type in all cases: cell-based
sqCNGA3 (squirrel CNGA3) = target: T1, sqCNGA3 (squirrel CNGA3) (Ictidomys tridecemlineatus, UniProt A0A6H2E3H4); assay: inside-out patch clamp, HEK293T, Hill fit
T1 construct: pMO vector, no tag stated; HEK293T (PIEZO1-deleted) cells, also Xenopus oocytes; homomer
T1 sequence (A0A6H2E3H4 1-672): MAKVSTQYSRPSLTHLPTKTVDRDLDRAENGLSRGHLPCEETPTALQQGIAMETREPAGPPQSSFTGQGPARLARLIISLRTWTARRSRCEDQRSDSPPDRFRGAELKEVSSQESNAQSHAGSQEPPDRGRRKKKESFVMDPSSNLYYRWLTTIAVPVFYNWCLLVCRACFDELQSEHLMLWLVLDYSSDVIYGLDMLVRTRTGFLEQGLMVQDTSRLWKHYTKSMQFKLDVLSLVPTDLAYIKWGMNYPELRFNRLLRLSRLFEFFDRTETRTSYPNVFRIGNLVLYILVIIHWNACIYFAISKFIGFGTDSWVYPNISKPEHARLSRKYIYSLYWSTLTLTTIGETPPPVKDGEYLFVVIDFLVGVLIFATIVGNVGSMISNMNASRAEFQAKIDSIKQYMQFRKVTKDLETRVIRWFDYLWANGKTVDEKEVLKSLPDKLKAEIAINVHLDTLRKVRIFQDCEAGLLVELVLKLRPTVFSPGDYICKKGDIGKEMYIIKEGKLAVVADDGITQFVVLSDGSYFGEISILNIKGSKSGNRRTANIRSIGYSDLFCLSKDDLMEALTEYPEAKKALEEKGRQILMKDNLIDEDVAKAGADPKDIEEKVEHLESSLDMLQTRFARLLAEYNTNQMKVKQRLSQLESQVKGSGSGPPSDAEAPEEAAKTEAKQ

mCNGA3 (mouse CNGA3) = target: T2, mCNGA3 (mouse CNGA3) (Mus musculus, UniProt A0A6H2E2T0); assay: inside-out patch clamp, HEK293T, Hill fit
T2 construct: HEK293T (PIEZO1-deleted) cells, also Xenopus oocytes; homomer
T2 sequence (A0A6H2E2T0 1-630): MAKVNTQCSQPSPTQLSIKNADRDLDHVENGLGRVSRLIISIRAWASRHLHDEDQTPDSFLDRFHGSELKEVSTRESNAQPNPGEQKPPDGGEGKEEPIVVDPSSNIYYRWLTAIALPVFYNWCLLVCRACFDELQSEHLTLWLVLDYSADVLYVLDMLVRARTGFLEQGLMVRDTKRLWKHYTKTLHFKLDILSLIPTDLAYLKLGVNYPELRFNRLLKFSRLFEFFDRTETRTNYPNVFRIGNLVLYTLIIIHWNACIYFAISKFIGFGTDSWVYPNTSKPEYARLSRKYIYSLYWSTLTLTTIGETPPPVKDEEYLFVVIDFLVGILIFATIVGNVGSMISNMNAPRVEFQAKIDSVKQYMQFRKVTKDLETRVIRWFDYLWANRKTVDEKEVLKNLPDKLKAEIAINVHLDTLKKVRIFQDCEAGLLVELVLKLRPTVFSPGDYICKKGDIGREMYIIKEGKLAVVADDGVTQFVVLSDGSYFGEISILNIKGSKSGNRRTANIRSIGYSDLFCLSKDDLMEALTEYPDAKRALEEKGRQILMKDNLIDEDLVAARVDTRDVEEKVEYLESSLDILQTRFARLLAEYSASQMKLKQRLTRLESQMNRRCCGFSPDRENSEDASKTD

[1] = target: T3, CNGA3-CNGB1 heteromers (mCNGA3 with mCNGB1) (Mus musculus, UniProt A0A6H2E2T0+E1AZ71); assay: voltage clamp, Xenopus oocytes, inhibition of cold-activated current; settings: 100 µM extracellular drug, 1 µM intracellular cGMP, -80 mV, cooling; inhibitor; mixed with CNGA3 homomers
T3 construct: full-length subunits co-expressed in Xenopus oocytes from pMO vector; mixture with CNGA3 homomers likely
T3 sequence (E1AZ71 whole entry, one chain of several): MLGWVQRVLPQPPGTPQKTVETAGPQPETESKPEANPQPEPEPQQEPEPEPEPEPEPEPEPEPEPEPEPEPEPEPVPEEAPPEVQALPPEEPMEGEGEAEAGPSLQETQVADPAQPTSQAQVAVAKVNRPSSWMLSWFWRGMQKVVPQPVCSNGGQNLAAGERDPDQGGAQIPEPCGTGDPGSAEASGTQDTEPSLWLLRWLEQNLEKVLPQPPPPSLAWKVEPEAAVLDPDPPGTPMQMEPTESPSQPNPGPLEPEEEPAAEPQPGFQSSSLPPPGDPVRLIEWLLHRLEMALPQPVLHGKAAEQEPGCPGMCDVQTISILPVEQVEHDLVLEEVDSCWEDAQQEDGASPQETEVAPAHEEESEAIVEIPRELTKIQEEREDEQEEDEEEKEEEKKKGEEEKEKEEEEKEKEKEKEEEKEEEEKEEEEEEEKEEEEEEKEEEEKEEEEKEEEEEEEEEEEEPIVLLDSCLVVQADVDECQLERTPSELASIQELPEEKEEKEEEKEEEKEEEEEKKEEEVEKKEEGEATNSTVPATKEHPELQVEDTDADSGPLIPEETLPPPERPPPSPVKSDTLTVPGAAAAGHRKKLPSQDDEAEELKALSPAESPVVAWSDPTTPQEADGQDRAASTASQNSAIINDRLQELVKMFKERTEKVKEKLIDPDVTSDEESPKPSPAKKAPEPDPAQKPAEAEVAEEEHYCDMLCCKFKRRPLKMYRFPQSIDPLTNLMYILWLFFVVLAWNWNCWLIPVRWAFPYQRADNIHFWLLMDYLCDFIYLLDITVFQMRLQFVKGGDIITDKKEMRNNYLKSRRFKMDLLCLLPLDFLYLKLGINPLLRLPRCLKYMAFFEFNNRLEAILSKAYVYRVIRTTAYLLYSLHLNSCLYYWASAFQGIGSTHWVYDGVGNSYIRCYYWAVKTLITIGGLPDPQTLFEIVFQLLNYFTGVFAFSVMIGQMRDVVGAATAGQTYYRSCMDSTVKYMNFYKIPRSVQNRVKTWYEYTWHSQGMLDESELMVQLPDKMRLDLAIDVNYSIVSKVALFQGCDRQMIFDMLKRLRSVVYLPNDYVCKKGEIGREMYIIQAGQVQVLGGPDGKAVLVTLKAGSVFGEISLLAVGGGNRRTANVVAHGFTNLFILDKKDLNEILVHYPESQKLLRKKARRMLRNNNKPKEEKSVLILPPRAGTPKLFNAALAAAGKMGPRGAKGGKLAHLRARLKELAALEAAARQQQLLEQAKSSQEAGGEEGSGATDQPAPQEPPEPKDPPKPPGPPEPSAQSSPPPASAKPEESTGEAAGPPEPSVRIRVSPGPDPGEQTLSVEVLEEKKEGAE

Compound | EC50 (sqCNGA3 (squirrel CNGA3)) [µM] | EC50 (mCNGA3 (mouse CNGA3)) [µM] | inhibition [1]
Nc1nc2c(ncn2[C@@H]2O[C@@H]3COP(=O)(O)O[C@H]3[C@H]2O)c(=O)[nH]1 [cGMP] | 26.4 ± 1.12 | 21.8 ± 5.48 | –
COc1ccc([C@H]2Sc3ccccc3N(CCN(C)C)C(=O)[C@H]2OC(C)=O)cc1 [l-cis-diltiazem] | – | – | CNGA3-CNGB1 heteromers can form a cold-activated l-cis-diltiazem-sensitive ion channel
